Patent EP1693059A1, “Use of rocaglamide derivatives as NF-AT-specific inhibitors for the treatment of certain inflammatory diseases” (Deutsches Krebsforschungszentrum, priority 2005, dated 2006)

How the values were obtained:
NF-kappa B [1] = assay: NF-kappa B consensus luciferase reporter in Jurkat T cells; type: cell-based, human; details: for inhibition of NF-kappa B-dependent transcription: doses higher than 150 nM, 480 min
Source text: Luciferase reporter construct containing the human IL-2 (-300/+47), the human IL-4 (-269/+11) promoter and the multiple IL-4 NF-AT (P1) luciferase constructs were generated previously (Ehret et al., 2001; Li-Weber et al., 1998). The multiple copies of the AP-1 binding site from SV40 enhancer ([…]), the NF-kappa B consensus sequence ([…]) and the human IL-2 NF-AT (-282/-250) element ([…]) were constructed by ligation of the DNA sequence into the multiple-cloning site of pTATA-Luc vector. The luciferase reporter construct containing the human IFN-γ (-854/+7) promoter was construct by ligation of the IFN-γ promoter sequence generated by PCR into the luciferase reporter vector. All constructs were confirmed by sequencing analysis. The pLuc-Bax promoter reporter plasmid was kindly provided by M. L. Schmitz (Department for Chemistry and Biochemistry, University of Bern, Switzerland).
Jurkat T cells were transfected by eleclroporation as previously described (Li-Weber et al., 1998). After overnight recovering, the cells were divided and treated with different doses of rocaglamides and than further cultured in the absence or presence of PMA (10 ng/ml) and ionomycin (0.5 µM) for 8 h. Luciferase activity was determined in 10 µl of cell extract using the luciferase assay substrate (Promega Corp., Heidelberg, Germany) with a Duolumat LB9507 luminometer (Berthold, Bad Wildbad, Germany).
Characteristically, NF-AT family proteins act synergistically with AP-1 (Fos/Jun) proteins to activate genes containing composite NF-AT and AP-1 binding sites (Macian et al., 2001). Many cytokine genes, including IL-2, IL-4, and IFN-γ contain NF-AT/AP-1 composite sites in their promoter/enhancer region (Rao et al., 1997). To investigate whether inhibition of NF-AT and c-Jun expression by rocaglamides would lead to suppression of their transcriptional activities, we performed transfection studies with luciferase reporter constructs containing multiple copies of the NF-AT-binding elements derived from the IL-4 and IL-2 promoter and the consensus binding sequences for AP-1 and NF-kappa B, respectively. […]

JNK = assay: Immunoblot of phosphorylated JNK in Jurkat T cells; type: cell-based, human; details: with PMA/ionomycin
Protocol: T cells were lysed in ice-cold RIPA buffer (50 mM Tris-HCl, pH 8.0, 120 mM NaCI, 1% NP-40, 0.5% Desoxycholate, 1 mM PMSF, 25 mM NaF, 1% SDS, 1 mM DTT, 0.2 mM Na3V04 and 20 µl/ml protease inhibitors) for 30 min. […] Equal amounts of proteins were separated on 10% SDS-PAGE gels, transferred onto Hybond-ECL nitrocellulose membrane (Amersham Biosciences, Little Chalfon, UK). The membrane was blocked with 5% milk powder in PBS/0.1% Tween 20 for 1 h, washed with the same solution and incubated with antibodies at 37°C for 1 h or overnight at 4 °C. The blots were washed with PBS/Tween and developed with HRP-coupled antibodies followed by enhanced Chemiluminescence Reagent Plus (PerkinElmer Life Sciences, Boston, MA). […] For stripping, membranes were incubated for 30 min at 56 °C in a buffer containing 62.5 mM Tris-HCl, pH 6.7, 2% SDS and 100 mM β-mercaptoethanol.
To investigate the molecular mechanisms of rocaglamides-mediated suppression of NF-AT activity, we examined the effect of rocaglamides on activities of MAP kinases.

NF-kappa B subunit p65 = assay: Immunoblot of nuclear NF-kappa B subunit p65 in activated Jurkat T cells; type: cell-based, human; details: PMA/ionomycin 2 h
Protocol: Many inflammatory cytokine genes are transcriptionally activated by the inducible, ubiquitous transcription factors NF-AT, AP-1 and NF-kappa B (Tsai et al., 1996; Sica et al., 1997; Falvo et al., 2000; Macian et aL, 2001; Kaminuma et al., 2002; Li-Weber & Krammer, 2003). Therefore, we first examined the effect of the rocagtamide derivatives on nuclear expression levels of NF-AT, the AP-1 subunit c-Jun, and the NF-kappa B subunit p65 in activated T cells. Nuclear proteins were prepared from Jurkat T cells, stimulated by PMA/iouomycin for 2 h in the presence or absence of different doses of rocaglamides. […] CsA is a well known immunosuppressive reagent that targets NF-AT activity.

NF-kappa B [2] = details: Baumann et al., 2002; cited from earlier work

Structure (SMILES) | inhibition of NF-kappa B-dependent transcription (NF-kappa B [1]) | expression of phosphor-JNK (p-JNK) (JNK) | nuclear levels of p65 (NF-kappa B subunit p65) | NF-kappa B activity (NF-kappa B [1]; concentrations up to 100 nM) | NF-kappa B activity induced by TNF-α or PMA (NF-kappa B [2])
COC(=O)[C@H]1[C@@H](OC=O)[C@@]2(O)c3c(OC)cc(OC)cc3O[C@@]2(c2ccc3c(c2)OCO3)[C@@H]1c1ccccc1 [Roc-3] | about 20% | stronger inducers of p-JNK than Roc-2 |  |  | 
COc1ccc([C@@]23Oc4cc(OC)cc(OC)c4[C@]2(O)[C@H](O)[C@H](C(=O)N(C)C)[C@H]3c2ccccc2)cc1 [Roc-1] |  | stronger inducers of p-JNK than Roc-2 | slightly elevated | subtle increase | inhibit NF-kappa B activity
COc1ccc([C@@]23Oc4cc(OC)cc(OC)c4[C@]2(O)[C@H](OC(C)=O)[C@H](C(=O)N(C)C)[C@H]3c2ccccc2)cc1 [Roc-2] | about 20% | Roc-1 and 3 are stronger inducers of p-JNK than Roc-2 |  |  | 
